Test results as given in patent US5780481A, “Method for inhibiting activation of the human A3 adenosine receptor to treat asthma” (Merck & Co., Inc., priority 1996, dated 1998).

Columns and labels:
[1] = tested on: hamster cheek pouch arterioles; test: Vascular constriction in hamster cheek pouch arterioles; design: species or system Golden hamster
Procedure: Adenosine, inosine, cromolyn, compound 48/80, methylene blue, acetylcholine, and components for saline solutions used to bathe arterioles are obtained from Sigma. 8(p-sulphophenyl)theo-phylline was obtained from Research Biochemicals, Inc. (Natick, Mass.).
Arterioles (luminal diameter approximately 60 μm) are dissected from male Golden hamster cheek pouches, transferred to a 37° C. tissue chamber, and cannulated at both ends (see Duling et al., Am. J. Physiol., (241) (Heart Circ. Physiol., (10) pp. H108-H116 (1981); Duling et al., Microcirculatory Technology, edited by C. H. Baker and W. G. Nastuk, Orlando Academic Press, pp. 265-280 (1986)). Changes in luminal diameter in response to abluminal delivery of adenosine (10^-8 M to 10^-4 M) are measured using videotaped microscopic observation and video calipers with continuous output, to generate cumulative concentration-response curves.
Examination of the abluminal surface of the vessel after staining with methylene blue reveal large numbers of mast cells closely associated with the vessel wall.

[2] = tested on: canine A3 adenosine receptors; test: Affinity for canine A3 adenosine receptors; format: binding
[3] = molecular target: T1, human A3 adenosine receptor (Homo sapiens, UniProt P0DMS8); test: cAMP accumulation assay, A3 receptors stably expressed on CHO cells (FIG. 1); format: cell-based
T1 construct: expressed in transfected cells
T1 sequence (P0DMS8 1-318): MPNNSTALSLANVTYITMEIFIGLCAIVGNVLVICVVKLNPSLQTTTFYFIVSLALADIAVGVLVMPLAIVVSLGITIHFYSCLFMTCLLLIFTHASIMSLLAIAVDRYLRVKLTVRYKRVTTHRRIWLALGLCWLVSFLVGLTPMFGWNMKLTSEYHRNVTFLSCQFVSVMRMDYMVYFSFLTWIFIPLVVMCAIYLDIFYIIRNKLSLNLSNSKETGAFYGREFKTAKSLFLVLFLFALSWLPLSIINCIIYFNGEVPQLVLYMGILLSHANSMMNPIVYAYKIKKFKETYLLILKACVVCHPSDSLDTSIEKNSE
Procedure: The changes in cAMP accumulation were measured in stably transfected CHO cells expressing the human adenosine receptor subtypes. CHO cells were washed twice in phosphate buffered saline (PBS) and detached in 0.2% EDTA in PBS. After pelleting at 800 rpm for 10 min, cells were resuspended in KRH buffer (140 mM NaCl/5 mM KCl/2 mM CaCl2 /1.2 mM MgSO4 /1.2 mM KH2 PO4 /6 mM glucose/25 mM Hepes buffer, pH 7.4), washed once in KRH buffer and resuspended at 10^7 cells/mL. The cell suspension (100 μL) was mixed with 100 μL of KRH buffer containing 200 μM of the phosphodiesterase inhibitor Ro 20-1724 and incubated at 37° C. for 15 minutes. Antagonists were preincubated for 10 minutes before adding 5 μM forskolin and 60 μM adenosine. After 10 minutes, 400 μL of 100 mM acetic acid was added and the sample was boiled for 5 minutes. The supernatant was recovered by centrifugation for 15 minutes and cAMP levels were determined by radioimmunoassay ([…] kit, DuPont/NEN) using the acetylation protocol.

[4] = molecular target: T1, human A3 adenosine receptor; test: Radioligand binding assay, A3 receptor; settings: [3H]-NECA or [125I]-ABA; membranes of transfected COS7 cells; read-out: IC50, inhibition of specific radioligand binding to A3 receptor
Procedure: Membranes prepared from transfected COS7 cells were utilized in a binding assay to measure the affinity of agonists and antagonists on the human adenosine receptors. […] Bound radioactivity was measured by scintillation counting. Binding data were analyzed by the use on nonlinear regression curve fitting program Graph Pad InPlot, Version 3.0 (Graph Pad Software, San Diego). […] The affinities of agonists and antagonists on human adenosine receptor subtypes were measured in competition binding assays using the radiolabeled adenosine agonists, [^3 H]-cyclo-hexyladenosine (CHA) for A1 receptors, [^3 H]-CGS21680 (2-(p-(2-carboxyethyl)-phenylamino)-5'-N-ethyl-carboxamidoadenosine) for A2a receptors and, [^3 H]-5'-N-ethylcarboxamido adenosine ([^3 H]-NECA), or [^125 I]-N^6 -aminobenzyl adenosine (^125 I-ABA) for A3 receptors. Nonselective binding was determined with 1 μM I-ABA for A1 and A3 receptors and 10 μM NECA for A2a receptors. […]

[5] = molecular target: T2, human A1 adenosine receptor (Homo sapiens, UniProt P30542); test: Radioligand binding assay, A1 receptor; settings: [3H]-cyclohexyladenosine (CHA); membranes of transfected COS7 cells; read-out: IC50, inhibition of specific radioligand binding to A1 receptor
T2 construct: expressed in transfected cells; host or cells: COS7 cells (transient transfection), membranes
T2 sequence (P30542 1-326): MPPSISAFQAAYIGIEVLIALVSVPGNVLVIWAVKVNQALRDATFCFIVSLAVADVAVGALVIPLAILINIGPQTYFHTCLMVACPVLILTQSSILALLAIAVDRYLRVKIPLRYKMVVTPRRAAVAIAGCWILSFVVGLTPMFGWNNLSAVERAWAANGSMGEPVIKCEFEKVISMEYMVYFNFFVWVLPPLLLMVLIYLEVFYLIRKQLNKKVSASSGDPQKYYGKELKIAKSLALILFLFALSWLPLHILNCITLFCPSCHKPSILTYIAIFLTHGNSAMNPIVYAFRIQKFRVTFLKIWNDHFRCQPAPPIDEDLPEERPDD
Description: (§1) The human A1, A2a, A2b and A3 receptor subtype cDNAs were subcloned into the expression vectors pSVL (Pharmacia, Columbus, Ohio), CMV5 (Mumby, et al., PNAS, (87) pp. 728-732 (1990)) pCDNA1 or pREP (Invitrogen). Transient expression in COS7 cells (monkey kidney cell line, ATCC CRL 1651, ATCC, Rockville, Md.) (Doyl et al. WO 95/11681) was accomplished by transfection of the cloned adenosine receptor cDNAs under the control of the SV40 promoter into mammalian cells, such as COS7. Membranes prepared from the transfected cells were utilized for the determination of binding affinity, selectivity and specificity of the human adenosine receptors for various ligands. […]
(§2) Membranes prepared from transfected COS7 cells were utilized in a binding assay to measure the affinity of agonists and antagonists on the human adenosine receptors. […] Bound radioactivity was measured by scintillation counting. Binding data were analyzed by the use on nonlinear regression curve fitting program Graph Pad InPlot, Version 3.0 (Graph Pad Software, San Diego). Ki values were calculated using the Cheng-Prusoff derivation (Cheng, Y. C. and Prusoff, H. R. (1973) Biochem. Pharmacol. 22, 3099-3108). […] Nonselective binding was determined with 1 μM I-ABA for A1 and A3 receptors and 10 μM NECA for A2a receptors. Activity on A2b receptor subtypes was measured in the cAMP accumulation assay described below. […]

[6] = molecular target: T3, human A2b adenosine receptor (Homo sapiens, UniProt P29275); test: cAMP accumulation via A2b receptors; format: cell-based; settings: at 10 μM; stably transfected CHO cells; adenosine (10 μM) induced
T3 construct: cAMP accumulation induced by adenosine
T3 sequence (P29275 1-332): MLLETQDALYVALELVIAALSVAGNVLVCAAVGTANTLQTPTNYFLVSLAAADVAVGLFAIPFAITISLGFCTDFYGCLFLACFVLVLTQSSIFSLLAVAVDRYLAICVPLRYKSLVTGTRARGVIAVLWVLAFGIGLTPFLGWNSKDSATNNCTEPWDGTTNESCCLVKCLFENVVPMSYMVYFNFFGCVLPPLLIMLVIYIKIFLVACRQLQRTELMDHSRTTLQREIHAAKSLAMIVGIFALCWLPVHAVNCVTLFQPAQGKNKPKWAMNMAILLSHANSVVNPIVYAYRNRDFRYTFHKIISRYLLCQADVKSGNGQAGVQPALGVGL

myocardial infarct = test: Reduction of myocardial infarct size in anesthetized dogs; format: in vivo, dog
Procedure: The effect of antagonist compound IV, with high affinity for canine A3 adenosine receptors, on myocardial infarct size is compared to a vehicle-treated control group in barbital-anesthetized dogs subjected to 90 minutes of left anterior descending coronary artery occlusion followed by 3 hours of reperfilsion. Vehicle (5 μM NaOH in isotonic saline) or antagonist are infused at a rate of 1 ml/min directly into the left anterior descending coronary artery distal to the occlusion site beginning 10 minutes before occlusion and are continued throughout the entire ischemic period. The myocardial region at risk and infarct size are determined by the triphenyltetrazolium histochemical technique and regional myocardial blood flow by radioactive microspheres. Coronary sinus LDH activity and histamine concentrations were measured at various times throughout the experiments and myeloperoxidase activity was determined at the conclusion of the experiments as an index of neutrophil infiltration into the ischemic-reperfused mycocardium. Ten dogs were included in this preliminary study, 4 in the vehicle-treated group and 6 in the antagonist treated group.

[7] = molecular target: T4, human A2a adenosine receptor (Homo sapiens, UniProt P29274); test: Radioligand binding assay, A2a receptor; settings: [3H]-CGS21680; membranes of transfected COS7 cells; read-out: IC50, inhibition of specific radioligand binding to A2a receptor
T4 construct: expressed in transfected cells; host or cells: COS7 cells (transient transfection), membranes
T4 sequence (P29274 whole entry): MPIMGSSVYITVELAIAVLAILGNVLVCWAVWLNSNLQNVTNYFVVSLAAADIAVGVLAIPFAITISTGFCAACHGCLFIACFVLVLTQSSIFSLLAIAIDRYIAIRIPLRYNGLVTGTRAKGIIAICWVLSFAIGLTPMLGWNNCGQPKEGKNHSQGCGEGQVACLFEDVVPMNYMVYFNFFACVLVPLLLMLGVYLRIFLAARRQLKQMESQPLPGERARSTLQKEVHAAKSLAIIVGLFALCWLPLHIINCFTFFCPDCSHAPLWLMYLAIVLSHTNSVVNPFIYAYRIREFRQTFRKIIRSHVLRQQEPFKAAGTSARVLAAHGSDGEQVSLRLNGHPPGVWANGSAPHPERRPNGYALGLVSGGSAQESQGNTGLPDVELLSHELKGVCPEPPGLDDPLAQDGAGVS
Description: as §1, §2

[8] = tested on: mast cells isolated from rat peritoneum; settings: cited from earlier work
asthmatics = asthmatics but not nonasthmatics; cited from earlier work
[9] = tested on: ischemic reperfused myocardium; settings: in vivo; cited from earlier work

For `Cn1c(=O)c2[nH]c(-c3ccc(S(=O)(=O)O)cc3)nc2n(C)c1=O` [8(p-sulfophenyl) theophylline], which “effect on adenosine-induced constriction” value ([1]; pretreatment 100 μM) is on record?
Its value is “did not alter the constriction”.

And the “effect on adenosine-induced dilator responses” value ([1]; pretreatment 100 μM)?
Its value is “inhibited the dilator responses”.

For `COC(=O)C1=C2C=CN(C)C=C2c2nc(-c3ccccc3)nn2C1` [Compound IV], which “affinity for canine A3 adenosine receptors” value [2] is on record?
The value was “high affinity”.

What about the “effect on inhibition of cAMP accumulation resulting from adenosine activation of A3 receptors” value ([3]; 10 μM compound IV, forskolin induced cAMP) of the same compound?
The value was “prevents the inhibition of cAMP accumulation”.

What about the “effect on basal cAMP levels” value ([3]; basal) of the same compound?
Its value is “no effect”.

What about the “effect on levels of cAMP accumulated with forskolin alone” value ([3]; forskolin alone) of the same compound?
The value was “no effect”.

What about the IC50 [4] of the same compound?
Its IC50 is 0.013 µM.

What about the IC50 [5] of the same compound?
Its IC50 is 5.3 µM.

And the “IC50, cAMP accumulation via A2b receptors” value [6]?
Its value is “inactive”.

And the myocardial infarct size (myocardial infarct; 90 min LAD occlusion, 3 h reperfusion, intracoronary infusion, vs vehicle)?
Its myocardial infarct size is “effectively reduces myocardial infarct size”.

What about the “hemodynamics and regional myocardial blood flow in non-ischemic left circumflex coronary artery region” value (myocardial infarct; at baseline or during occlusion, between groups) of the same compound?
Its value is “not different between groups”.

And the myeloperoxidase activity (myocardial infarct; between the two groups, end of experiment)?
The myeloperoxidase activity was “not different between the two groups”.

What about the arrhythmias (myocardial infarct; during occlusion and reperfusion, all animals) of the same compound?
The arrhythmias was “arrhythmias are encountered”.

What about the “coronary sinus LDH activity” value (myocardial infarct; during reperfusion) of the same compound?
The value was “reduced”.

What about the “coronary sinus histamine concentrations” value (myocardial infarct; during reperfusion) of the same compound?
Its value is “reduced”.

And the dP/dt (myocardial infarct; during reperfusion)?
Its dP/dt is “significantly improved”.

What about the “left anterior descending coronary artery blood flow” value (myocardial infarct; during reperfusion) of the same compound?
The value was “significantly decreased”.

And the “myeloperoxidase activity in infarcted tissue” value (myocardial infarct; infarcted tissue, end of experiment)?
Its value is “tendency for reduced activity”.

What about the collateral blood flow (myocardial infarct; ischemic-reperfused region, during occlusion, particularly subepicardial) of the same compound?
The collateral blood flow was “slightly greater”.

And the “ventricular fibrillation requiring cardioversion” value (myocardial infarct; some dogs from each group)?
The value was “some dogs from each group progress to ventricular fibrillation requiring cardioversion”.

And the IC50 [7]?
The IC50 was 27.5 µM.

For `Nc1ncnc2c1ncn2[C@@H]1O[C@H](CO)[C@@H](O)[C@H]1O` [adenosine], which “release of granule contents from mast cells” value [8] is on record?
Its value is “potentiates the release of granule contents”.

And the bronchoconstriction (asthmatics)?
Its bronchoconstriction is “produce bronchoconstriction in asthmatics but not in nonasthmatics”.

What about the “constrictor response of arterioles” value ([1]; 10^-6 M adenosine, abluminal) of the same compound?
The value was “elicited an intense, transient constriction”.

And the “dilator response of arterioles” value ([1]; concentrations higher than 10^-6 M adenosine)?
Its value is “induced dilator responses”.

What about the “mast cell degranulation on abluminal vessel surface” value ([1]; following exposure to adenosine, methylene blue staining) of the same compound?
Its value is “mast cells are found to be degranulated”.

Which myocardial ischemic injury [9] does the source give for `N#Cc1cc(NC(=O)C(=O)O)c(Cl)c(NC(=O)C(=O)O)c1` [lodoxamide] here?
The myocardial ischemic injury was “reduces myocardial ischemic injury”.
